In patent EP0627489B1, “Methods and compositions for the treatment of malignancies in which a protein kinase is associated” (WASHINGTON RESEARCH FOUNDATION, priority 1990, dated 1991):
Values joined by “and” are separate entries in the source; they are usually repeats but may differ in a detail not shown here. Equal values may be shown once. Read-outs that look alike come from different tables or passages of the source. Each block holds one compound with its values, some of them ahead of it.

How the values were obtained:
Assay type in all cases: biochemical
TC.PTPase = target: T1, TC.PTPase (Homo sapiens, UniProt P17706); test: Effectors of PTPase activity, full-length enzyme
T1 construct: open reading frames of the full-length 48-kDa T cell PTPase (TC.PTPase); made in house; host or cells: Sf9 (Spodoptera frugiperda) insect cells, recombinant baculovirus (pVL 941)
T1 sequence (P17706 1-415): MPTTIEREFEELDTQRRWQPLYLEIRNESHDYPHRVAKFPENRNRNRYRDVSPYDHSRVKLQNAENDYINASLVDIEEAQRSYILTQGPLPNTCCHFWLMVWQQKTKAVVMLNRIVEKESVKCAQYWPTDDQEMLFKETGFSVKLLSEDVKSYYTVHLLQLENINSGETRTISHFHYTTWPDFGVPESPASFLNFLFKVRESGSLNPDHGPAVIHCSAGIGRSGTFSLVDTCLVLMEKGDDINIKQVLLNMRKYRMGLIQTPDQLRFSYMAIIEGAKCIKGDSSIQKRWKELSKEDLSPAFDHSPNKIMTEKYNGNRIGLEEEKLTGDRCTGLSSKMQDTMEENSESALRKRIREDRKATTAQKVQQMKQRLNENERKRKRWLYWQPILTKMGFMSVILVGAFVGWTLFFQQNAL
Protocol: (§1) Cell extracts or purified enzymes were assayed for tyrosine phosphatase using a method described by Tonks et al., in "Purification of the Major Protein-tyrosine-phosphatases of Human Placenta," J. Biol. Chem. (263):6722-6730, 1988, based on measurement of the release of ^32P from labeled substrate. Since phosphorylation of reduced, carboxyamidomethylated, maleylated (RCM)-lysozyme is not stoichiometric, concentrations are expressed in terms of ^32P phosphotyrosine. Briefly, a mixture of 0.02 ml of PTPase (diluted to less than 1 unit/ml in Buffer A) and 0.02 ml of Buffer A was warmed at 30°C for 5 minutes. Buffer A is composed of 25 mM imidazole HCl […], 1 mg/ml BSA, 0.1% (v/v) β-mercaptoethanol. […] The reaction was terminated after approximately 10 minutes by addition of 0.18 ml of 20% (w/v) trichloroacetic acid and 0.02 ml of 25 mg/ml BSA, added as a carrier protein. The suspension was vortexed, allowed to stand on ice for 10 minutes, and centrifuged at 12,500 x g for 3 minutes. A 0.2-ml aliquot of the supernatant was added to 1 ml of Aquasol scintillant and counted in a Beckman LS7000 scintillation counter. […] Blank incubations were performed in which the PTPase was replaced by Buffer A, and total ^32P was determined by counting 0.02 ml of the substrate. […] One unit of PTPase activity is defined as that amount which releases 1 nmol of phosphate/min. […]

TCΔC11.PTPase [1] = target: T2, TCΔC11.PTPase (Homo sapiens, UniProt P17706); test: Effectors of PTPase activity, truncated enzyme
T2 construct: a truncated PTPase in which an 11-kDa segment was deleted from the carboxyl end (TCΔC11.PTPase-transfected cells); made in house; host or cells: Sf9 (Spodoptera frugiperda) insect cells, recombinant baculovirus (pVL 941)
T2 sequence (P17706 1-317 limits assumed): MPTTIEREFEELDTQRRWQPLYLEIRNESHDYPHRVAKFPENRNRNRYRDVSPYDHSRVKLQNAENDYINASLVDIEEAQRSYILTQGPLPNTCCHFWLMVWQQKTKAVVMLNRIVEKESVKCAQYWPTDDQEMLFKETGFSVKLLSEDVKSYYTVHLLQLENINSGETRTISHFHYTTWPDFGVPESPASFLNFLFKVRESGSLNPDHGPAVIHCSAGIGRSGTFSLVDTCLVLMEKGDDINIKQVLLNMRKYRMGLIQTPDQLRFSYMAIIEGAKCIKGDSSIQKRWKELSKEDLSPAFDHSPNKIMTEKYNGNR

TCΔC11.PTPase [2] = target: T2, TCΔC11.PTPase; test: Effectors of PTPase activity, truncated enzyme; settings: substrate RCML 5 µM
Protocol: as §1

[3] = effector 2 mM, substrate MBP 5 µM
[4] = effector 10 µM, substrate MBP 5 µM
[5] = effector 10 µM, substrate RCML 5 µM
[6] = effector 0.01 µM, substrate MBP 5 µM
[7] = effector 1 µM, substrate MBP 5 µM
[8] = effector 100 µM, substrate MBP 5 µM

Compound: O=C(O)CN(CCN(CC(=O)O)CC(=O)O)CC(=O)O [EDTA]
Activity, percentage of phosphate released relative to control in which the effector was omitted (TC.PTPase): 124 percentage and 137 percentage
Activity, percentage of phosphate released relative to control in which the effector was omitted (TCΔC11.PTPase [1]): 170 percentage and 150 percentage

Activity, percentage of phosphate released relative to control in which the effector was omitted (TC.PTPase; [3]): 43 percentage
Activity, percentage of phosphate released relative to control in which the effector was omitted (TC.PTPase; effector 2 mM, substrate RCML 5 µM): 249 percentage
Activity, percentage of phosphate released relative to control in which the effector was omitted (TCΔC11.PTPase [1]; [3]): 108 percentage
Activity, percentage of phosphate released relative to control in which the effector was omitted (TCΔC11.PTPase [2]; effector 2 mM): 132 percentage
Compound: NCCCCNCCCN [spermidine]

Compound: NCCCNCCCCNCCCN [spermine]
Activity, percentage of phosphate released relative to control in which the effector was omitted (TC.PTPase): 62 percentage
activation of the full-length enzyme (TC.PTPase): up to sevenfold
remaining activity at 2000 µM (TC.PTPase; 10 min, read-out: Activity, percentage of phosphate released relative to control in which the effector was omitted): 727%
Activity, percentage of phosphate released relative to control in which the effector was omitted (TCΔC11.PTPase [1]): 110 percentage and 97 percentage

Compound: molybdate
Activity, percentage of phosphate released relative to control in which the effector was omitted (TC.PTPase; [4]): 1 percentage
Activity, percentage of phosphate released relative to control in which the effector was omitted (TC.PTPase; [5]): 0 percentage
Activity, percentage of phosphate released relative to control in which the effector was omitted (TCΔC11.PTPase [1]; [4]): 2 percentage
Activity, percentage of phosphate released relative to control in which the effector was omitted (TCΔC11.PTPase [2]; effector 10 µM): 2 percentage

Compound: poly Glu:Tyr 4:1
Activity, percentage of phosphate released relative to control in which the effector was omitted (TC.PTPase; [6]): 119 percentage
Activity, percentage of phosphate released relative to control in which the effector was omitted (TC.PTPase; effector 0.01 µM, substrate RCML 5 µM): 66 percentage
Activity, percentage of phosphate released relative to control in which the effector was omitted (TC.PTPase; [7]): 133 percentage
Activity, percentage of phosphate released relative to control in which the effector was omitted (TC.PTPase; effector 1 µM, substrate RCML 5 µM): 18 percentage
Activity, percentage of phosphate released relative to control in which the effector was omitted (TC.PTPase; [4]): 58 percentage
Activity, percentage of phosphate released relative to control in which the effector was omitted (TC.PTPase; [5]): 6 percentage
Activity, percentage of phosphate released relative to control in which the effector was omitted (TCΔC11.PTPase [1]; [6]): 102 percentage
Activity, percentage of phosphate released relative to control in which the effector was omitted (TCΔC11.PTPase [1]; [7]): 104 percentage
Activity, percentage of phosphate released relative to control in which the effector was omitted (TCΔC11.PTPase [1]; [4]): 127 percentage
Activity, percentage of phosphate released relative to control in which the effector was omitted (TCΔC11.PTPase [2]; effector 0.01 µM): 70 percentage
Activity, percentage of phosphate released relative to control in which the effector was omitted (TCΔC11.PTPase [2]; effector 1 µM): 17 percentage
Activity, percentage of phosphate released relative to control in which the effector was omitted (TCΔC11.PTPase [2]; effector 10 µM): 11 percentage

Compound: vanadate
Activity, percentage of phosphate released relative to control in which the effector was omitted (TC.PTPase; [8]): 0 percentage
Activity, percentage of phosphate released relative to control in which the effector was omitted (TC.PTPase; effector 100 µM, substrate RCML 5 µM): 0 percentage
Activity, percentage of phosphate released relative to control in which the effector was omitted (TCΔC11.PTPase [1]; [8]): 1 percentage
Activity, percentage of phosphate released relative to control in which the effector was omitted (TCΔC11.PTPase [2]; effector 100 µM): 2 percentage
